Source: patent US20120190620A1, “METHODS TO IDENTIFY TARGETS AND MOLECULES REGULATING PURINOSOMES AND THEIR USES” (priority 2010, published 2012)

tested on: HeLa cells; assay: Purinosome dynamics DMR screen, sequential order molecule, DMAT, TBB; assay type: cell-based, human; conditions: GPCR/RTK agonist library; pretreated about one hour; order agonist, DMAT (20 micromolar), TBB (25 micromolar); FIG. 3
Source text: A library of agonists for various different GPCRs were used to individually pretreat a confluent layer of Hela cells for about one hour, before sequential stimulation with DMAT and TBB, respectively. The responses were monitored using Epic® system.
A library of molecules targeting endogenous alpha2A and beta2 adrenergic receptors were used to individually pretreat a confluent layer of Hela cells for about one hour, before sequential stimulation with DMAT and TBB, respectively. The responses were monitored using Epic® system.
Epic® wavelength interrogation system (Corning Inc., Corning, N.Y.) was used for whole cell sensing. This system consists of a temperature-control unit, an optical detection unit, and an on-board liquid handling unit with robotics. The detection unit is centered on integrated fiber optics, and enables kinetic measures of cellular responses with a time interval of ˜15 sec. The compound solutions were introduced by using the on-board liquid handling unit (i.e., pippetting).
For biosensor cellular assays, compound solutions were made by diluting the stored concentrated solutions with the HBSS (1× Hanks balanced salt solution, plus 20 mM Hepes, pH 7.1), and transferred into a 384 well polypropylene compound storage plate to prepare a compound source plate. Two compound source plates were made separately when a two-step assay was performed. In parallel, the cells were washed twice with the HBSS and maintained in 30 μl of the HBSS to prepare a cell assay plate. Both the cell assay plate and the compound source plate(s) were then incubated in the hotel of the reader system. After incubation the baseline wavelengths of all biosensors in the cell assay microplate were recorded and normalized to zero. Afterwards, a 2 to 10 min continuous recording was carried out to establish a baseline, and to ensure that the cells reached a steady state. Cellular responses were then triggered by transferring 10 μl of the compound solutions into the cell assay plate using the on-board liquid handler.
All studies were carried out at a controlled temperature (28° C.). At least two independent sets of experiments, each with at least three replicates, were performed.
The upstream signaling pathways linking to the purinosome is unknown at the present time. To identify cellular targets and pathways that are involved in regulating purinosome dynamics, a library of agonists for a great number of G protein-coupled receptors and membrane bound receptor tyrosine kinases was made in house, and each agonist was used to stimulate a confluent layer of Hela cells, cultured using high initial seeding number (25k per well for 384 well Epic® cell culture compatible biosensor microplates) in purine rich medium (i.e., regular 10% FCS or FBS). The concentrations for all small organic molecules were 10 micromolar, whereas 1 micromolar for all small peptides, and 100 nanomolar for all protein factors (molecular weight >15k Da). The cellular responses to each agonist were recorded for about 1 hour, and used to determine the functional expression of their corresponding cognate receptor(s).
To examine the receptor whose signaling is involved in regulating the purinosome dynamics, Hela cells were pretreated individually with each agonist for about one hour, followed by sequential stimulation with DMAT (20 micromolar) and TBB (25 micromolar), each step about 1 hour.

Row | Compound | modulation of the DMAT DMR signal | modulation of the TBB DMR signal
1 | O=C(O)c1cc([N+](=O)[O-])ccc1NCCCc1ccccc1 [NPPB] | potentiate | no or little impact

same assay, conditions: adrenergic receptor ligand library; order ligand, DMAT, TBB; FIG. 5

Row | Compound | modulation of the DMAT signal | modulation of the TBB signal
2 | c1ccc2c(CC3=NCCN3)cccc2c1 [naphazoline] | suppress | potentiate
3 | CC(N)C(O)c1ccc(O)c(O)c1 (centres unmarked) [methylnorephrine] | suppress | potentiate
4 | N=C(N)N/N=C/c1c(Cl)cccc1Cl [guanabenz] | suppress | potentiate
5 | CC(C)(Cc1c[nH]c2ccc(Cl)cc12)NCCOc1ccccc1OCC1CC1 [RS17053] | potentiate | suppress
6 | N=C(CC(O)COc1ccccc1-c1ccccc1)N1CCCCC1 (centres unmarked) [AH11110A] | potentiate | suppress
7 | NC[C@H](O)c1ccc(O)c(O)c1 [norepinephrine] | suppress | potentiate
8 | c1ccc2c(c1)[I+]c1ccccc1-2 [diphylpheneiodonium] | potentiate | suppress
9 | N=C(N)NC(=O)Cc1c(Cl)cccc1Cl [gufacine] | suppress | potentiate
10 | Brc1c(NC2=NCCN2)ccc2nccnc12 [UK14304] | suppress | potentiate
11 | CC(C(O)c1ccc(O)cc1)N1CCC(Cc2ccccc2)CC1 (centres unmarked) [ifenprodil] | potentiate | suppress
12 | Cc1cccc(C)c1N=C1NCCCS1 [xylazine] | suppress | potentiate
13 | CCC(NC(C)C)C(O)c1ccc(O)c(O)c1 (centres unmarked) [isoetharine] | specifically suppress | 
14 | C1COC(NC(C2CC2)C2CC2)=N1 [rilmenidine] | suppress | potentiate
15 | Clc1ccc2nsnc2c1NC1=NCCN1 [tizanidine] | suppress | potentiate
16 | Clc1ccc2c(c1)C(N1CCNCC1)=Nc1ccccc1O2 [amoxapine] | potentiate | suppress
17 | CNCCCC12CCC(c3ccccc31)c1ccccc12 [maprotiline] | potentiate | suppress
18 | CC(C)NCC(O)c1ccc(O)c(O)c1 (centres unmarked) [isoproterenol] | specifically suppress | 
19 | CC(CCc1ccc(O)cc1)NCCc1ccc(O)c(O)c1 (centres unmarked) [dobutamine] | specifically suppress | 
